Measured values reported in patent publication US6355799B1, “Substituted benzene compounds, process for their preparation, and herbicidal and defoliant compositions containing them” (ISK Americas Incorporated, priority 1997, dated 2002).

Key:
Assay type in all cases: in vivo
[1] = test system: green foxtail (Setaria viridis, SETVI); assay: Pre-emerge test, greenhouse herbicide activity screening; settings: for phytotoxicity rating SETVI: pre-emerge, 14 days after application, scale 0-100; for Pre-emerge herbicidal activity, phytotoxicity rating SETVI: rating scale 0-100, 14 days after application
Excerpt: (§1) A standard greenhouse herbicide activity screening system was used to evaluate the herbicidal efficacy and crop safety of these test compounds. Seven broadleaf weed species including redroot pigweed (Amaranthus retroflexus, AMARE, velvetleaf (Abutilon theophrasti, ABUTH), sicklepod (Cassia obtusifolia, CASOB), ivyleaf morningglory (Ipomoea hederacea, IPOHE), lambsquarters (Chenopodium album, CHEAL), common ragweed (Ambrosia artemisizfolia L., AMBEL), and cocklebur (Xanthium strumarium, XANST) were used as test species. Four grass weed species including green foxtail (Setaria viridis, SETVI), barnyardgrass (Echinochloa crus-galli, ECHCG), johnsongrass (Sorghum halepense, SORHA), and large crabgrass (Digitaria sanguinalis, DIGSA) were also used. In addition, three crop species, field corn (Zea mays L., var. Dekalb 535, CORN), soybean (Glycine max L., var. Pella 86, SOY), and is upland rice (Oryza sp., var. Tebonnet, RICE) were included.
(§2) All plants were grown in 10 cm square plastic pots which were filled with a sandy loam soil mix. For pre-emerge tests, seeds were planted one day prior to application of the test compounds. For post-emerge tests, seeds were planted 8-21 days prior to the test to allow emergence and good foliage development prior to application of the test substances. At the time of the post-emerge application, plants of all species were usually at the 2-3 leaf stage of development.
(§3) All test compounds Were dissolved in acetone and applied to the test units in a volume of 187 l /ha. Test materials were applied at rates ranging from 15 g ai/ha to 1000 g ai/ha using a track sprayer equipped with a TJ8001E even flow flat fan spray nozzle. Plants were arranged on a shelf so that the top of the canopy (post-emerge) or top of the soil surface (pre-emerge) was 40-45 cm below the nozzle. Pressurized air was used to force the test solution through the nozzle as it was mechanically advanced (via electrically driven chain drive) over the top of all test plants/pots. This application simulates a typical commercial field herbicide application.
(§4) In the post-emerge test, a commercial non-ionic surfactant was also included (0.25% v/v) to enhance wetting of the leaf surfaces of target plants. Immediately after application, test units of the pre-emerge applications were watered at the soil surface to incorporate the test materials. Subsequently, these test units were bottom-watered. Post-emerge test units were always bottom-watered.
(§5) At 14 days after application of the test materials, phytotoxicity ratings were recorded. A rating scale of 0-100 was used as previously described in Research Methods in Weed Science, 2nd edition, B. Truelove, Ed., Southern Weed Science Society, Auburn University, Auburn, Ala. 1977. Briefly, “0” corresponds to no damage and “100” corresponds to complete death of all plants in the test unit. This scale was used both to determine efficacy against weed species and damage to crop species. Herbicide activity data for various compounds of this invention, which are shown by compound No. in Tables 1-8, are shown in Tables 11 and 12.

[2] = test system: large crabgrass (Digitaria sanguinalis, DIGSA); assay: as above; settings: for phytotoxicity rating DIGSA: pre-emerge, 14 days after application, scale 0-100; for Pre-emerge herbicidal activity, phytotoxicity rating DIGSA: rating scale 0-100, 14 days after application
Excerpt: as §1, §2, §3, §4, §5

[3] = test system: sicklepod (Cassia obtusifolia, CASOB); assay: as above; settings: for phytotoxicity rating CASOB: pre-emerge, 14 days after application, scale 0-100; for Pre-emerge herbicidal activity, phytotoxicity rating CASOB: rating scale 0-100, 14 days after application
Excerpt: as §1, §2, §3, §4, §5

[4] = test system: lambsquarters (Chenopodium album, CHEAL); assay: as above; settings: for phytotoxicity rating CHEAL: pre-emerge, 14 days after application, scale 0-100; for Pre-emerge herbicidal activity, phytotoxicity rating CHEAL: rating scale 0-100, 14 days after application
Excerpt: as §1, §2, §3, §4, §5

[5] = test system: velvetleaf (Abutilon theophrasti, ABUTH); assay: as above; settings: for phytotoxicity rating ABUTH: pre-emerge, 14 days after application, scale 0-100; for Pre-emerge herbicidal activity, phytotoxicity rating ABUTH: rating scale 0-100, 14 days after application
Excerpt: as §1, §2, §3, §4, §5

[6] = test system: barnyardgrass (Echinochloa crus-galli, ECHCG); assay: as above; settings: for phytotoxicity rating ECHCG: pre-emerge, 14 days after application, scale 0-100; for Pre-emerge herbicidal activity, phytotoxicity rating ECHCG: rating scale 0-100, 14 days after application
Excerpt: as §1, §2, §3, §4, §5

[7] = test system: ivyleaf morningglory (Ipomoea hederacea, IPOHE); assay: as above; settings: for phytotoxicity rating IPOHE: pre-emerge, 14 days after application, scale 0-100; for Pre-emerge herbicidal activity, phytotoxicity rating IPOHE: rating scale 0-100, 14 days after application
Excerpt: as §1, §2, §3, §4, §5

[8] = test system: green foxtail (Setaria viridis, SETVI); assay: Post-emerge test, greenhouse herbicide activity screening; settings: 14 days after application; for SETVI phytotoxicity rating: post-emerge, rating scale 0-100; for Post-emerge Herbicidal Activity, phytotoxicity rating SETVI: rating scale 0-100 (0 no damage, 100 complete death)
Excerpt: as §1, §2, §3, §4, §5

[9] = test system: large crabgrass (Digitaria sanguinalis, DIGSA); assay: as above; settings: 14 days after application; for DIGSA phytotoxicity rating: post-emerge, rating scale 0-100; for Post-emerge Herbicidal Activity, phytotoxicity rating DIGSA: rating scale 0-100 (0 no damage, 100 complete death)
Excerpt: as §1, §2, §3, §4, §5

[10] = test system: sicklepod (Cassia obtusifolia, CASOB); assay: as above; settings: 14 days after application; for CASOB phytotoxicity rating: post-emerge, rating scale 0-100; for Post-emerge Herbicidal Activity, phytotoxicity rating CASOB: rating scale 0-100 (0 no damage, 100 complete death)
Excerpt: as §1, §2, §3, §4, §5

[11] = test system: lambsquarters (Chenopodium album, CHEAL); assay: as above; settings: 14 days after application; for CHEAL phytotoxicity rating: post-emerge, rating scale 0-100; for Post-emerge Herbicidal Activity, phytotoxicity rating CHEAL: rating scale 0-100 (0 no damage, 100 complete death)
Excerpt: as §1, §2, §3, §4, §5

[12] = test system: velvetleaf (Abutilon theophrasti, ABUTH); assay: as above; settings: 14 days after application; for ABUTH phytotoxicity rating: post-emerge, rating scale 0-100; for Post-emerge Herbicidal Activity, phytotoxicity rating ABUTH: rating scale 0-100 (0 no damage, 100 complete death)
Excerpt: as §1, §2, §3, §4, §5

[13] = test system: barnyardgrass (Echinochloa crus-galli, ECHCG); assay: as above; settings: 14 days after application; for ECHCG phytotoxicity rating: post-emerge, rating scale 0-100; for Post-emerge Herbicidal Activity, phytotoxicity rating ECHCG: rating scale 0-100 (0 no damage, 100 complete death)
Excerpt: as §1, §2, §3, §4, §5

[14] = test system: ivyleaf morningglory (Ipomoea hederacea, IPOHE); assay: as above; settings: 14 days after application; for IPOHE phytotoxicity rating: post-emerge, rating scale 0-100; for Post-emerge Herbicidal Activity, phytotoxicity rating IPOHE: rating scale 0-100 (0 no damage, 100 complete death)
Excerpt: as §1, §2, §3, §4, §5

[15] = test system: redroot pigweed (Amaranthus retroflexus, AMARE); assay: as above; settings: 14 days after application; for AMARE phytotoxicity rating: post-emerge, rating scale 0-100; for Post-emerge Herbicidal Activity, phytotoxicity rating AMARE: rating scale 0-100 (0 no damage, 100 complete death)
Excerpt: as §1, §2, §3, §4, §5

[16] = test system: redroot pigweed (Amaranthus retroflexus, AMARE); assay: Pre-emerge test, greenhouse herbicide activity screening; settings: for phytotoxicity rating AMARE: pre-emerge, 14 days after application, scale 0-100; for Pre-emerge herbicidal activity, phytotoxicity rating AMARE: rating scale 0-100, 14 days after application
Excerpt: as §1, §2
as §3, with “Test materials were applied at rates ranging from 15 g ai/ha to 1000 g ai/ha using a track sprayer equipped with a TJ8001E even flow flat fan spray nozzle.” left out
as §4, §5

Cn1c(C(F)(F)F)cc(=O)n(-c2ccc(Cl)cc2NC(=O)c2ccc3ccccc3c2)c1=O [Compound 2-131, 3-[4-chloro-2-(2-naphthoylamino)phenyl]-1-methyl-6-trifluoromethyl-2,4(1H, 3H)-pyrimidinedione]
phytotoxicity rating SETVI ([1]; 63 g ai/ha): 40 | phytotoxicity rating SETVI ([1]; 250 g ai/ha): 90 | phytotoxicity rating DIGSA ([2]; 63 g ai/ha): 40 | phytotoxicity rating DIGSA ([2]; 250 g ai/ha): 80 | phytotoxicity rating CASOB ([3]; 63 g ai/ha): 60 | phytotoxicity rating CASOB ([3]; 250 g ai/ha): 95 | phytotoxicity rating CHEAL ([4]; 63 g ai/ha): 90 | phytotoxicity rating CHEAL ([4]; 250 g ai/ha): 100 | phytotoxicity rating ABUTH ([5]; 63 g ai/ha): 85 | phytotoxicity rating ABUTH ([5]; 250 g ai/ha): 100 | phytotoxicity rating ECHCG ([6]; 63 g ai/ha): 10 | phytotoxicity rating ECHCG ([6]; 250 g ai/ha): 60 | phytotoxicity rating IPOHE ([7]; 63 g ai/ha): 30 | phytotoxicity rating IPOHE ([7]; 250 g ai/ha): 85 | SETVI phytotoxicity rating ([8]; 63 g ai/ha): 70 | SETVI phytotoxicity rating ([8]; 250 g ai/ha): 90 | DIGSA phytotoxicity rating ([9]; 63 g ai/ha): 30 | DIGSA phytotoxicity rating ([9]; 250 g ai/ha): 70 | CASOB phytotoxicity rating ([10]; 63 g ai/ha): 80 | CASOB phytotoxicity rating ([10]; 250 g ai/ha): 100 | CHEAL phytotoxicity rating ([11]; 63 g ai/ha): 100 | CHEAL phytotoxicity rating ([11]; 250 g ai/ha): 100 | ABUTH phytotoxicity rating ([12]; 63 g ai/ha): 100 | ABUTH phytotoxicity rating ([12]; 250 g ai/ha): 100 | ECHCG phytotoxicity rating ([13]; 63 g ai/ha): 30 | ECHCG phytotoxicity rating ([13]; 250 g ai/ha): 60 | IPOHE phytotoxicity rating ([14]; 63 g ai/ha): 100 | IPOHE phytotoxicity rating ([14]; 250 g ai/ha): 100 | AMARE phytotoxicity rating ([15]; 63 g ai/ha): 100 | AMARE phytotoxicity rating ([15]; 250 g ai/ha): 100 | phytotoxicity rating AMARE ([16]; 63 g ai/ha): 90 | phytotoxicity rating AMARE ([16]; 250 g ai/ha): 95

CCOC(=O)C(Cl)Cc1c(OC)c(Cl)cc(F)c1-n1c(=O)cc(C(F)(F)F)n(C)c1=O (single isomer, unassigned) [Compound 14-5, 3-{4-chloro-2-[2-chloro-2-(ethoxycarbonyl)ethyl]-6-fluoro-3-methoxyphenyl}-1-methyl-6-trifluoromethyl-2,4(1H, 3H)-pyrimidinedione]
Pre-emerge herbicidal activity, phytotoxicity rating SETVI ([1]; 63 g ai/ha): 10 | Pre-emerge herbicidal activity, phytotoxicity rating SETVI ([1]; 250 g ai/ha): 60 | Pre-emerge herbicidal activity, phytotoxicity rating DIGSA ([2]; 63 g ai/ha): 20 | Pre-emerge herbicidal activity, phytotoxicity rating DIGSA ([2]; 250 g ai/ha): 95 | Pre-emerge herbicidal activity, phytotoxicity rating CASOB ([3]; 63 g ai/ha): 0 | Pre-emerge herbicidal activity, phytotoxicity rating CASOB ([3]; 250 g ai/ha): 10 | Pre-emerge herbicidal activity, phytotoxicity rating CHEAL ([4]; 63 g ai/ha): 70 | Pre-emerge herbicidal activity, phytotoxicity rating CHEAL ([4]; 250 g ai/ha): 100 | Pre-emerge herbicidal activity, phytotoxicity rating ABUTH ([5]; 63 g ai/ha): 100 | Pre-emerge herbicidal activity, phytotoxicity rating ABUTH ([5]; 250 g ai/ha): 100 | Pre-emerge herbicidal activity, phytotoxicity rating ECHCG ([6]; 63 g ai/ha): 0 | Pre-emerge herbicidal activity, phytotoxicity rating ECHCG ([6]; 250 g ai/ha): 40 | Pre-emerge herbicidal activity, phytotoxicity rating IPOHE ([7]; 63 g ai/ha): 20 | Pre-emerge herbicidal activity, phytotoxicity rating IPOHE ([7]; 250 g ai/ha): 30 | Post-emerge Herbicidal Activity, phytotoxicity rating SETVI ([8]; Rate 63 g ai/ha): 60 | Post-emerge Herbicidal Activity, phytotoxicity rating SETVI ([8]; Rate 250 g ai/ha): 95 | Post-emerge Herbicidal Activity, phytotoxicity rating DIGSA ([9]; Rate 63 g ai/ha): 95 | Post-emerge Herbicidal Activity, phytotoxicity rating DIGSA ([9]; Rate 250 g ai/ha): 100 | Post-emerge Herbicidal Activity, phytotoxicity rating CASOB ([10]; Rate 63 g ai/ha): 10 | Post-emerge Herbicidal Activity, phytotoxicity rating CASOB ([10]; Rate 250 g ai/ha): 50 | Post-emerge Herbicidal Activity, phytotoxicity rating CHEAL ([11]; Rate 63 g ai/ha): 100 | Post-emerge Herbicidal Activity, phytotoxicity rating CHEAL ([11]; Rate 250 g ai/ha): 100 | Post-emerge Herbicidal Activity, phytotoxicity rating ABUTH ([12]; Rate 63 g ai/ha): 100 | Post-emerge Herbicidal Activity, phytotoxicity rating ABUTH ([12]; Rate 250 g ai/ha): 100 | Post-emerge Herbicidal Activity, phytotoxicity rating ECHCG ([13]; Rate 63 g ai/ha): 40 | Post-emerge Herbicidal Activity, phytotoxicity rating ECHCG ([13]; Rate 250 g ai/ha): 100 | Post-emerge Herbicidal Activity, phytotoxicity rating IPOHE ([14]; Rate 63 g ai/ha): 30 | Post-emerge Herbicidal Activity, phytotoxicity rating IPOHE ([14]; Rate 250 g ai/ha): 100 | Post-emerge Herbicidal Activity, phytotoxicity rating AMARE ([15]; Rate 63 g ai/ha): 100 | Post-emerge Herbicidal Activity, phytotoxicity rating AMARE ([15]; Rate 250 g ai/ha): 100 | Pre-emerge herbicidal activity, phytotoxicity rating AMARE ([16]; 63 g ai/ha): 70 | Pre-emerge herbicidal activity, phytotoxicity rating AMARE ([16]; 250 g ai/ha): 100
